Laboratory results: patent US20190307783A1, “USE OF ANTIVIRALS TO INHIBIT PROTOZOAN VIRUSES” (priority 2016, published 2019)
Values joined by “and” are separate entries in the source; they are usually repeats but may differ in a detail not shown here. Identical values can stand only once.

Legend:
[1] = tested on: LRV1+ Lgy M4147 parasites; assay: Intracellular 2CMA-TP accumulation and retention in parasites (HPLC); format: in vitro ADME, Leishmania guyanensis; conditions: for Intracellular 2CMA-TP concentration: 18 hours, n=4
Description: To account for the relative sensitivity of Lgy LRV1 to 2CMA compared to the insensitivity of LRV1 RDRP activity to inhibition by 2CMA-TP, we hypothesized that parasites take up and activate 2CMA, accumulating high 2CMA-TP concentrations. We first identified an HPLC protocol capable of resolving both synthetic 2CMA-TP and a smaller peak we presume to be 2CMA-DP from natural ribonucleotides and the internal standard, dGTP (FIG. 23A and FIG. 23B). Standard mixtures of known concentration were used to generate a standard curve relating peak area to 2CMA-TP amounts (FIG. 30). We then tested several protocols for extracting parasite nucleotides and determined that extraction with 1:1 acetonitrile:water performed best. Using this protocol, we compared the nucleotide profiles of LRV1+ Lgy grown in the presence or absence of 10 μM extracellular 2CMA for 18 hours, a time chosen because it corresponds to about two rounds of parasite replication. Under these conditions, we observed a peak co-eluting with synthetic 2CMA-TP that was absent from untreated parasites (FIG. 25B), establishing the parasite's capacity to phosphorylate 2CMA.
We then measured steady-state levels of intracellular 2CMA-TP following incubation of late-log-phase parasites with 2CMA for 18 hours. To determine the intracellular concentration of 2CMA-TP under these conditions, we measured the average volume of the parasites (roughly 23 fL). […] Over this range of concentrations, internal 2CMA-TP levels exceeded external 2CMA concentrations by 40- to 80-fold (FIG. 26A and FIG. 26B), attesting to the potency of the parasite's purine salvage pathway.
Cultures of WT or GFP-expressing LRV1+ Lgy M4147 were seeded at 2×10^5 cells/mL and analyzed when they reached early, mid, or late log phase. From each sample, one aliquot was analyzed by light scattering on a flow-cytometer, while another was immobilized by treatment with 20 mM sodium azide and imaged by spinning-disk confocal microscopy {Ellenberger, 1987}. Cell volumes were calculated using a custom ImageJ script {Schindelin, 2012}. A standard curve relating forward scattering intensity to measured volume was developed and used to estimate metabolite concentrations (FIG. 29).
For drug metabolism studies, 10^8 late-log phase parasites in 5 mL of Schneider's medium were treated with indicated drug concentrations for 20 hours. For accumulation assays, 10^8 cells were harvested immediately. In ‘washout’ experiments, one 5 mL culture was grown for each replicate of each time point. These cultures were spun down, resuspended in drug-free medium, centrifuged again, and finally suspended in 5 mL drug-free Schneider's medium. After 2, 4, or 8 hours, nucleotides were extracted from 10^8 parasites from individual washed cultures and analyzed by HPLC.
For each sample, cells were collected by centrifugation at 2200×g, 4° C. for 5 minutes, re-suspended in 1 mL ice-cold PBS and re-centrifuged. The cell pellet was gently re-suspended in 100 μL ice-cold 0.5×PBS plus 7 nmol dGTP as a recovery and elution standard. […] Cells were immediately lysed by rapidly re-suspending in 900 μL ice-cold 5:4 acetonitrile:water mixture {Au, 1989} and vortexing continuously for 5 min at 4° C. Insoluble debris was pelleted at 16,000×g for 5 minutes and the clarified extract was transferred to a fresh tube. The solvent was removed by evaporation in a SAVANT SpeedVac concentrator (Thermo Scientific) with the heater off and the vacuum pump refrigeration on. Samples were re-suspended with 80 μL distilled water, flash frozen, and stored at −80° C. prior to HPLC analysis.
Nucleoside di- and tri-phosphates were separated by isocratic HPLC as described {Moal, 1989}. […]

[2] = HPLC test of 2CMA-TP degradation during the RDRP reaction; format: physicochemical; conditions: 1 hr incubation, 300 μM, n=3
Method: Incubation of the three LRV1 populations with 2CMA-TP reduced synthesis of both the full-length and small RDRP products (FIG. 22A, FIG. 22B, FIG. 23A, FIG. 23B, and FIG. 24). The synthesis of each product was quantitated and normalized to that obtained with drug-free controls, from which IC50s were calculated (Table 3). […] We were concerned that this arose artificially from 2CMA-TP degradation during the assay.
To study inhibition of the viral RDRP by 2CMA-TP, varying amounts of the compound were added to standard RDRP reaction mixtures. 2CMA-TP was custom synthesized by Jena Bioscience, and its identity was confirmed using electrospray ionization with a Fourier-transform mass spectrometer in negative ion mode (Thermo Scientific). The stock concentration of 2CMA-TP was calculated by UV absorption at 260 nm, assuming that its molar extinction coefficient was identical to ATP. To measure the amount of 2CMA-TP which is non-specifically hydrolyzed over the course of an RDRP reaction, mock reactions were run using LRV1− gradient fractions, cold UTP, and 300 μM 2CMA-TP. The 20-μL reactions were diluted to 80 μL with distilled water and immediately analyzed by HPLC as described below.

LRV2 = assay: Virus levels in L. major strain 5-ASKH bearing LRV2; format: cell-based, Leishmania major; conditions: data not shown
Description: A second line of inquiry would of course be the development of anti-LRV1 agents with improved potency.

C[C@@]1(O)[C@H](O)[C@@H](COP(=O)(O)OP(=O)(O)OP(=O)(O)O)O[C@H]1n1cnc2c(N)ncnc21 [Compound 2CMA-TP, 2′-C-methyladenosine triphosphate]
Intracellular 2CMA-TP concentration ([1]; 1 μM external 2CMA): 78 ± 9.0 µM and 80 µM | Intracellular 2CMA-TP concentration ([1]; 3 μM external 2CMA): 152 ± 43 µM | Intracellular 2CMA-TP concentration ([1]; 10 μM external 2CMA): 410 ± 110 µM and 410 µM | Accumulated 2CMA-TP retained ([1]; 4 hours in drug-free medium after 18 hours in 10 μM 2CMA): approximately 50% | Intrinsic 8 hour 2CMA-TP concentration ([1]; 8 hours in drug-free medium, corrected for population growth): 230 ± 130 µM | Average 2CMA-TP concentration after washout ([1]; 8 hours in drug-free medium, not corrected for parasite replication): 170 ± 100 µM | 2CMA-TP degraded (to apparent 2CMA-DP) during the assay [2]: 3.7±0.6% | Inhibition of LRV2 virus levels, in words (LRV2): no inhibition of virus levels
